The record followed here is patent US20120270917A1 (The Trustees of the University of Pennsylvania, priority 2009, published 2012).

Molecules are shown by their SMILES. Counter-ions that a name gives are not always drawn.

T1 sequence (P0DOF5 whole entry): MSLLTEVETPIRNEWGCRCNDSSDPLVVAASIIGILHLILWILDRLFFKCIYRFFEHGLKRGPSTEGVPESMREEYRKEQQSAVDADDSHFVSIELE

One assay concerns the target T1, AM2 (Influenza A virus, UniProt P0DOF5).
T1 construct: expressed in transfected cells
Nature of the assay: cell-based. Conditions: Oocytes; 100 μM, 2 min; mean ± SE; read-out: AM2 wt % of inhibition by 100 μM 2 min.
Turning to `Cl.NC1CCC2(CC1)C1CC3CC(C1)CC2C3` (stereo not drawn) [Compound S15, (1r, 3r,5r,7r)-spiro[adamantane-2,1′-cyclohexan]-4′-aminium chloride], the inhibition (in general, the drop in the measured response relative to a control, in per cent) at 100 µM amounted to 89.1 ± 1.3%.
As for `CC(N)C12CC3CC(CC(C3)C1)C2` (stereo not drawn) [Rimantadine, reference compound], the inhibition at 100 µM turned out to be 91.2 ± 0.9%.
For the molecule `NC12CC3CC(CC(C3)C1)C2` [Amantadine, reference compound], the inhibition at 100 µM was 90.8 ± 2.5%.

Staying with this assay, now noted: Table 2.
For `NC1(C(F)(F)F)C2CC3CC(C2)CC1C3` (stereo not drawn) [Compound S6], the IC50 (in general, the concentration that gives 50% inhibition) is 10.1 µM.
`O=C1C2CC3CC(C2)CC1C3` [Compound S13] gave an IC50 of 28.8 µM. Compared with the last molecule, the IC50 is about 2.9-fold higher.
For `OC1(C(F)(F)F)C2CC3CC(C2)CC1C3` (stereo not drawn) [Compound S8], it took 13.8 µM to reach half-maximal inhibition (IC50).

The same assay, now with this note: concentration not given; Table 2.
Regarding `NC1(C(F)(F)F)C2CC3CC(C2)CC1C3` (stereo not drawn) [Compound S6], the “AM2 % inhibition at μM” value is 86.3%.
Regarding `O=C1C2CC3CC(C2)CC1C3` [Compound S13], the “AM2 % inhibition at μM” value is on record as 69.6%.
For the molecule `O=[N+]([O-])C1C2CC3CC(C2)CC1C3` (stereo not drawn) [Compound S3], the “AM2 % inhibition at μM” value was 85.6%.
As to `Cl.NC1C[C@@H]2C[C@@H]3CC1[C@H](C2)C3` (stereo partly drawn) [Compound S1, (2S,3aS,5R)-octahydro-1H-2,5-methanoinden-7-aminium chloride], the “AM2 % inhibition at μM” value was 94.2%.
With `OC1(C(F)(F)F)C2CC3CC(C2)CC1C3` (stereo not drawn) [Compound S8], the “AM2 % inhibition at μM” value was found to be 82.9%.
Turning to `CC1(O)C2CC3CC(C2)CC1C3` (stereo not drawn) [Compound S4], the “AM2 % inhibition at μM” value was determined as 85.8%.
For `NS(=O)(=O)NC1C2CC3CC(C2)CC1C3` (stereo not drawn) [Compound S7], the “AM2 % inhibition at μM” value turned out to be 81.6%.
In the case of `O=[N+]([O-])C12CC3CC(CC(C3)C1)C2` [Compound S9], the “AM2 % inhibition at μM” value was 87.2%.
Still for that read-out and setting: the result for `Cl.NC12CC3CCC(CC(C3)C1)C2` [Compound S2, tricyclo[4.3.1.13,8]undecan-1-aminium chloride] reads 81.3%; that for `CC1(N)C2CC3CC(C2)CC1C3` (stereo not drawn) [Compound S5], 65.0%.
The same measure, in the same setting: the result for `Cl.NC12CCC3CC(CC(C3)C1)C2` [Compound S12] reads 92%.

The assay is the same for the next values; noted with them: read-out: AM2 % inhibition at 100 uM; 100 uM; Table 1.
In the case of `Cl.Cl.N=C(N)NC(=N)NC12CC3CC(CC(C3)C1)C2` [Compound 41], the inhibition at 100 µM amounted to 70%.
In the case of `Cc1nc[nH]c1/C=N/OC12CC3CC(CC(C3)C1)C2` [Compound 43, 5-Methyl-3H-imidazole-4-carbaldehyde O-adamantan-1-yl-oxime], the inhibition at 100 µM came to 81%.
Same read-out and setting: the result for `O=CC12CC3CC(CC(C3)C1)C2` [Compound 49, 1-adamantanecarboaldehyde] reads 65.1%.
Same read-out and setting: for `CC(NC(=N)N)C12CC3CC(CC(C3)C1)C2` (stereo not drawn) [Compound 40] the value was 94%; for `C1NC2CC3CC1CC(C3)C2.Cl` [Compound 47, 4-Azatricyclo[4.3.1.1^3,8]undecan hydrochloride], 83.8%; for `O=C1C2CC3CC(C2)CC1C3` [Compound 50], 69.6%.
Regarding `NC1CSC2(SC1)C1CC3CC(C1)CC2C3` (stereo not drawn) [Compound 45], the inhibition at 100 µM is 64%.
Turning to `NOC12CC3CC(CC(C3)C1)C2` [Compound 42, O-adamantylhydroxylamine], the inhibition at 100 µM was 87%.
For the molecule `O=C1C2CC3CC1CC(C2)C3=O` [Compound 52, 2,6-diadamantone], the inhibition at 100 µM was found to be 59.1%.
In the case of `OC1(C(F)(F)F)C2CC3CC(C2)CC1C3` (stereo not drawn) [Compound 53, 2-trifluoromethyl-2-adamantol], the inhibition at 100 µM came out at 82.9%.
With `O=[N+]([O-])C12CC3CC(CC(C3)C1)C2` [Compound 54, 1-nitroadamantane], the inhibition at 100 µM is 87.2%.
As for `NC12CC3CC(C1)CC(O)(C3)C2` [Compound 38], the inhibition at 100 µM is 87%.
For the molecule `N=C(NO)C12CC3CC(CC(C3)C1)C2` [Compound 46, N-hydroxyadamantanecarboximidamide], the inhibition at 100 µM came out at 72.3%.
Regarding `NC(=O)C12CC3CC(CC(C3)C1)C2` [Compound 48], the inhibition at 100 µM amounted to 74.9%.
Consider `N=C(N)NC12CC3CC(CC(C3)C1)C2` [Compound 39, 1-(adamantyl)guanidine], for which the inhibition at 100 µM worked out at 97%.
On the same count and under the same terms, for `N=C(N)C12CC3CC(CC(C3)C1)C2` [Compound 44, Adamantane amidine hydrochloride] the value was 70%.
